Data taken from patent publication US8952024B2, “Herbicidal pyrimidone derivatives” (E I du Pont de Nemours and Company, priority 2009, dated 2015).
Read-outs that look alike come from different tables or passages of the source.

Assays:
Type in all cases: in vivo
[1] = system: morningglory (Ipomoea coccinea); experiment: Test B pre-/postemergence plant response
How it was run: (§1)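 Seeds sown in loam–sand blend were treated preemergence, and plants at 2–18 cm (1- to 4-leaf stage) in peat-based medium were treated postemergence; compounds were formulated in non-phytotoxic solvent with surfactant. After 13–15 days in greenhouse, response was visually rated against controls, 0 (no effect) to 100 (complete control).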

[2] = system: wheat (Triticum aestivum); experiment: Test B pre-/postemergence plant response; details: for plant injury at 31 g/ha: 31 g ai/ha; for plant injury at 125 g/ha: 125 g ai/ha
How it was run: as §1

[3] = system: johnsongrass (Sorghum halepense); experiment: Test B pre-/postemergence plant response; details: for pest or weed control at 31 g/ha: 31 g ai/ha; for pest or weed control at 125 g/ha: 125 g ai/ha
How it was run: as §1

rice (Oryza sativa) = experiment: Test B flooded paddy test
How it was run: (§2)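 Flooded-pot test: water raised to 3 cm above soil when treating, compound put in the water, level unchanged thereafter. Plants were at 2 leaves. Readout after 13 to 15 days, visual, relative to controls; 0 signifies no effect and 100 complete control.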

[4] = system: barnyardgrass (Echinochloa crus-galli); experiment: Test B flooded paddy test
How it was run: as §2

[5] = system: umbrella sedge (Cyperus difformis); experiment: Test B flooded paddy test
How it was run: as §2

[6] = system: ducksalad (Heteranthera limosa); experiment: Test B flooded paddy test
How it was run: as §2

[7] = Preemergence, 250 g ai/ha, 0 to 100 scale
[8] = 62 g ai/ha, postemergence, 0 is no effect, 100 is complete control, 13 to 15 days
[9] = Flood, 31 g ai/ha, scale 0 to 100 (0 no effect, 100 complete control)

## COCCCn1c(-c2ccccc2)ncc(C(=O)C2=C(O)CCCC2=O)c1=O [Compound 81, 5-[(2-hydroxy-6-oxo-cyclohexen-1-yl)carbonyl]-3-(3-methoxypropyl)-2-phenyl-4(3H)-pyrimidinone]
[1]; Ipomoea, post-emergence, Postemergence, 250 g ai/ha, scale 0 to 100 (0 no effect, 100 complete control), read-out: Plant response rating, Morningglory
  pest or weed control at 250 g/ha: 100%
[1]; Ipomoea, pre-emergence, Preemergence, 62 g ai/ha, scale 0 to 100, 0 no effect, 100 complete control, read-out: Plant response rating, Morningglory
  pest or weed control at 62 g/ha: 65%
[1]; Ipomoea, pre-emergence, Preemergence, 125 g ai/ha, scale 0 to 100, 0 no effect, 100 complete control, read-out: Plant response rating, Morningglory
  pest or weed control at 125 g/ha: 80%
[1]; [7]
  Morningglory plant response rating: 95
[2]; [8]
  Wheat plant response rating (0 to 100 scale): 20
[2]; [7]
  Wheat plant response rating: 0
[2]; Triticum aestivum, post-emergence, postemergence, scale 0 to 100, 0 is no effect, 100 is complete control, read-out: Plant response rating, Wheat
  plant injury at 31 g/ha: 5%
[2]; Triticum aestivum, post-emergence, Postemergence, visual rating after 13 to 15 days, scale 0 (no effect) to 100 (complete control)
  plant injury at 125 g/ha: 25%
[2]; Triticum aestivum, post-emergence, Postemergence, 250 g ai/ha, scale 0 to 100 (0 no effect, 100 complete control), read-out: Plant response rating, Wheat
  plant injury at 250 g/ha: 25%
[2]; Triticum aestivum, pre-emergence, Preemergence, scale 0 to 100 (0 no effect, 100 complete control), read-out: Plant response rating, Wheat
  plant injury at 31 g/ha: 0%
[2]; Triticum aestivum, pre-emergence, Preemergence, 62 g ai/ha, scale 0 to 100 (0 no effect, 100 complete control), read-out: Plant response rating, Wheat
  plant injury at 62 g/ha: 0%
[2]; Triticum aestivum, pre-emergence, Preemergence, scale 0 to 100, 0 no effect, 100 complete control, read-out: Plant response rating, Wheat
  plant injury at 125 g/ha: 0%
[3]; [8]
  Johnsongrass plant response rating (0 to 100 scale): 10
[3]; [7]
  Johnsongrass plant response rating: 90
[3]; Sorghum halepense, post-emergence, postemergence, scale 0 to 100, 0 is no effect, 100 is complete control, read-out: Plant response rating, Johnsongrass
  pest or weed control at 31 g/ha: 5%
[3]; Sorghum halepense, post-emergence, Postemergence, visual rating after 13 to 15 days, scale 0 (no effect) to 100 (complete control)
  pest or weed control at 125 g/ha: 75%
[3]; Sorghum halepense, post-emergence, Postemergence, 250 g ai/ha, scale 0 to 100 (0 no effect, 100 complete control), read-out: Plant response rating, Johnsongrass
  pest or weed control at 250 g/ha: 100%
[3]; Sorghum halepense, pre-emergence, Preemergence, scale 0 to 100 (0 no effect, 100 complete control), read-out: Plant response rating, Johnsongrass
  pest or weed control at 31 g/ha: 10%
[3]; Sorghum halepense, pre-emergence, Preemergence, 62 g ai/ha, scale 0 to 100, 0 no effect, 100 complete control, read-out: Plant response rating, Johnsongrass
  pest or weed control at 62 g/ha: 80%
[3]; Sorghum halepense, pre-emergence, Preemergence, scale 0 to 100, 0 no effect, 100 complete control, read-out: Plant response rating, Johnsongrass
  pest or weed control at 125 g/ha: 90%
Rice (Oryza sativa); [9]
  Rice plant response rating: 0
Rice (Oryza sativa); Oryza sativa, 250 g ai/ha, flooded paddy test, visual rating on 0 to 100 scale (0 no effect, 100 complete control) after 13 to 15 days, read-out: Plant response rating, Flood, Rice
  plant injury at 250 g/ha: 15%
Rice (Oryza sativa); Oryza sativa, Flood (flooded paddy test), 62 g ai/ha, scale of 0 to 100 where 0 is no effect and 100 is complete control, 13 to 15 days, read-out: Plant response rating, Rice
  plant injury at 62 g/ha: 0%
Rice (Oryza sativa); Oryza sativa, Flood (flooded paddy test), 125 g ai/ha, scale 0 to 100, 0 is no effect, 100 is complete control, 13 to 15 days, read-out: Plant response rating, Rice
  plant injury at 125 g/ha: 15%
[4]; Echinochloa crus-galli, 360 h, 250 g ai/ha, flooded paddy test, visual rating on 0 to 100 scale (0 no effect, 100 complete control) after 13 to 15 days, read-out: Plant response rating, Flood, Barnyardgrass
  pest or weed control at 250 g/ha: 60%
[4]; Echinochloa crus-galli, 360 h, Flood (flooded paddy test), 62 g ai/ha, scale of 0 to 100 where 0 is no effect and 100 is complete control, 13 to 15 days, read-out: Plant response rating, Barnyardgrass
  pest or weed control at 62 g/ha: 0%
[4]; Echinochloa crus-galli, 360 h, Flood (flooded paddy test), 125 g ai/ha, scale 0 to 100, 0 is no effect, 100 is complete control, 13 to 15 days, read-out: Plant response rating, Barnyardgrass
  pest or weed control at 125 g/ha: 40%
[4]; [9]
  Barnyardgrass plant response rating: 0
[5]; Cyperus difformis, 360 h, 250 g ai/ha, flooded paddy test, visual rating on 0 to 100 scale (0 no effect, 100 complete control) after 13 to 15 days, read-out: Plant response rating, Flood, Sedge, Umbrella
  pest or weed control at 250 g/ha: 40%
[5]; Cyperus difformis, 360 h, Flood (flooded paddy test), 62 g ai/ha, scale of 0 to 100 where 0 is no effect and 100 is complete control, 13 to 15 days, read-out: Plant response rating, Sedge, Umbrella
  pest or weed control at 62 g/ha: 0%
[5]; Cyperus difformis, 360 h, Flood (flooded paddy test), 125 g ai/ha, scale 0 to 100, 0 is no effect, 100 is complete control, 13 to 15 days, read-out: Plant response rating, Sedge, Umbrella
  pest or weed control at 125 g/ha: 30%
[5]; [9]
  Sedge, Umbrella plant response rating: 0
[6]; [9]
  Ducksalad plant response rating: 0
[6]; Heteranthera limosa, 360 h, 250 g ai/ha, flooded paddy test, visual rating on 0 to 100 scale (0 no effect, 100 complete control) after 13 to 15 days, read-out: Plant response rating, Flood, Ducksalad
  pest or weed control at 250 g/ha: 40%
[6]; Heteranthera limosa, 360 h, Flood (flooded paddy test), 62 g ai/ha, scale of 0 to 100 where 0 is no effect and 100 is complete control, 13 to 15 days, read-out: Plant response rating, Ducksalad
  pest or weed control at 62 g/ha: 0%
[6]; Heteranthera limosa, 360 h, Flood (flooded paddy test), 125 g ai/ha, scale 0 to 100, 0 is no effect, 100 is complete control, 13 to 15 days, read-out: Plant response rating, Ducksalad
  pest or weed control at 125 g/ha: 15%
